{"source": "patent US6967079B2", "about": "“Pyrimidine derivatives for labeled binding partners” (ISIS Pharmaceuticals, Inc., priority 1993, dated 2005)", "assay": "Fluorescence excitation and emission wavelengths", "format": "physicochemical", "parameters": "unit not given here", "settings": "deoxyriboside compound"}
{"substance": "2′-Deoxphenothiazine [phenothiazine deoxyriboside]", "values": [{"measurement": "emission wavelength (EM)", "value": 492}]}
